{
  "source": "patent US20200054539A1",
  "about": "“METHOD FOR REMOVING KERATOTIC PLUGS” (KAO CORPORATION, priority 2017, published 2020)",
  "key": {"[1]": {"assay": "Detergency against keratotic plugs after washing with water", "set-up": "species or system human", "conditions": "keratotic plugs kept in contact with water for 1 minute after the sample", "description": "(§1) The penetration was relatively evaluated by 11 criteria from the state 1 “the sample hardly penetrated into the keratotic plug” to the state 11 “the sample penetrated to the center of the keratotic plug”. The collapsibility by the detergency against keratotic plugs was relatively evaluated by 11 criteria from the state 1 “almost no change is observed in the external appearance of the keratotic plug” to the state 11 “peeling or separation is observed in the area from the surface layer to the central portion of the keratotic plug (the initial appearance of the keratotic plug is not retained)”.\n2. Evaluation of Detergency Against Keratotic Plugs after Washing with Water\nAfter one minute from the contact of the keratotic plugs with the sample, KimWipes (registered trademark) was brought into contact with an edge of the cover glass to remove the sample under the cover glass. Subsequently, 0.05 mL of water was dropwise added to an edge of the cover glass. The sample dropwise added with water was recorded with the digital microscope, and the collapse state of the keratotic plugs was evaluated after one minute from the contact of the keratotic plugs with water according to the criteria for evaluating collapsibility of the keratotic plugs. The results of the evaluation are shown in the column “Detergency against keratotic plugs (after washing with water)” in Table. The measurements were performed at 25° C."}, "[2]": {"assay": "Detergency against keratotic plugs: penetration of the sample into the keratotic plugs", "set-up": "species or system human", "conditions": "keratotic plugs kept in contact with a sample for 1 minute; Table 1 samples", "description": "(§2) 1. Evaluation of Detergency Against Keratotic Plugs During Cleansing\n(§3) Keratotic plugs in the nasal region were removed with “Biore Nose Pack (manufactured by Kao Corporation)”, the resulting keratotic plugs on the pack were gently taken out with tweezers.\n(§4) The resulting keratotic plugs were placed on a slide glass and were covered with a cover glass, and 0.05 mL of a sample was dropwise added to an edge of the cover glass. Consequently, the sample enters into the gap between the slide glass and the cover glass by capillary phenomenon and is brought into contact with the keratotic plugs. The contact of the keratotic plugs with the sample was recorded with a digital microscope (VHX-5000, manufactured by Keyence Corporation, magnification: x150), and the penetration of the sample into the keratotic plugs and the collapse state of the keratotic plugs were evaluated after one minute from the contact of the keratotic plugs with the sample. The results of each evaluation are shown in the columns “Detergency against keratotic plugs (penetration)” and “Detergency against keratotic plugs (during cleansing)” in Tables. The measurements were performed at 25° C.\nas §1"}, "[3]": {"assay": "Detergency against keratotic plugs during cleansing: collapse state of the keratotic plugs", "set-up": "species or system human", "conditions": "keratotic plugs kept in contact with a sample for 1 minute; Table 1 samples", "description": "as §2, §3, §4, §1"}, "[4]": {"system": "insoluble protein (zein protein)", "assay": "Evaluation of effect of suppressing protein aggregation", "conditions": "Table 1 sample", "description": "<<Evaluation of Effect of Suppressing Protein Aggregation>>\nThirty milliliters of a sample and 0.06 g of an insoluble protein (zein protein) were placed in a 35-mL standard glass bottle, and the concentration of the insoluble protein was adjusted to 0.2 mass % (test sample). Separately, a standard sample was prepared by using water instead of the sample and adjusting the concentration of the insoluble protein to 0.2 mass %. Subsequently, the standard glass bottles were sufficiently shaken and stirred up and down (shake width: 15 cm, 20 times at a rate of 5 times for 3 seconds) in a thermostatic chamber of 25° C. and were left to stand per 3 minutes. The precipitation state of the insoluble protein was then visually verified, and the ratio of the amount of the precipitated standard sample to the amount of the precipitated test sample (the height of the precipitate in each standard glass bottle was measured as the precipitation amount), (precipitation amount of standard sample)/(precipitation amount of test sample), was calculated. A higher ratio indicates a higher effect of suppressing protein aggregation."}},
  "data": [
    {"compound": "N=C(N)NCCC[C@H](N)C(=O)O", "note": "[Arginine]", "values": [
      {"measurement": "collapse of the keratotic plugs on contact with water (in words)", "setting": "[1]", "result": "further swelled to cause a phenomenon of accelerating the collapse of the keratotic plugs"},
      {"measurement": "penetration into keratotic plugs (in words)", "setting": "[2]", "result": "penetrated into keratotic plugs"}
    ]},
    {"compound": "O=P([O-])([O-])O.[Na+].[Na+]", "note": "[disodium hydrogen phosphate]", "values": [
      {"measurement": "collapse of the keratotic plugs on contact with water (in words)", "setting": "[1]", "result": "the collapse of the keratotic plugs did not progress"},
      {"measurement": "collapse of the keratotic plugs in contact with the sample (in words)", "setting": "[3]", "result": "the collapse of the keratotic plugs did not progress"},
      {"measurement": "penetration into keratotic plugs (in words)", "setting": "[2]", "result": "hardly penetrated into keratotic plugs"}
    ]},
    {"compound": "sodium polyoxyethylene (2) lauryl ether sulfate [POE (2) sodium lauryl sulfate]", "values": [
      {"measurement": "action on proteins (in words)", "setting": "[4]", "result": "the action on proteins was strong to dissolve the proteins"},
      {"measurement": "collapse of the keratotic plugs in contact with the sample (in words)", "setting": "[3]", "result": "the collapse of the keratotic plugs did not progress"},
      {"measurement": "penetration into keratotic plugs (in words)", "setting": "[2]", "result": "hardly penetrated into the keratotic plugs"}
    ]},
    {"compound": "O=P([O-])([O-])[O-].[Na+].[Na+].[Na+]", "note": "[trisodium phosphate]", "values": [
      {"measurement": "collapse of the keratotic plugs on contact with water (in words)", "setting": "[1]", "result": "the collapse of the keratotic plugs did not progress"},
      {"measurement": "collapse of the keratotic plugs in contact with the sample (in words)", "setting": "[3]", "result": "the collapse of the keratotic plugs did not progress"},
      {"measurement": "penetration into keratotic plugs (in words)", "setting": "[2]", "result": "hardly penetrated into keratotic plugs"}
    ]},
    {"compound": "O=C([O-])O.[Na+]", "note": "[sodium hydrogen carbonate]", "values": [
      {"measurement": "collapse of the keratotic plugs on contact with water (in words)", "setting": "[1]", "result": "the collapse of the keratotic plugs did not progress"},
      {"measurement": "collapse of the keratotic plugs in contact with the sample (in words)", "setting": "[3]", "result": "the collapse of the keratotic plugs did not progress"},
      {"measurement": "penetration into keratotic plugs (in words)", "setting": "[2]", "result": "hardly penetrated into keratotic plugs"}
    ]}
  ]
}
